# Laboratory results taken from PMC2912373, “Low-Density Lipoprotein Receptor-Related Protein 1 (LRP1) Mediates Neuronal Aβ42 Uptake and Lysosomal Trafficking” (PLoS ONE, 2010).
# Test system: N2a-mLRP4 cells
# Experiment: Steady-state FAM-Aβ42 accumulation (continuous feeding), FACS
# Format: cell-based, mouse
# Details: for levels of FAM-Aβ42 in N2a-mLRP4 cells compared to N2a-pcDNA3 cells: 500 nM FAM-Aβ42, 37°C, n = 3
# Method: To determine whether internalized Aβ42 is accumulated over time, we performed continuous feeding experiments of FAM-Aβ42 in N2a-pcDNA3 and N2a-mLRP4 cells. The steady-state levels and localization of Aβ42 were determined by flow cytometry and confocal microscopy, respectively (Fig. 2). Cells were incubated with 500 nM FAM-Aβ42 at 37°C for 24, 48 or 72 h and the content of fluorescence per cell was quantified by FACS and presented as a percentage of the levels in N2a-pcDNA3 at each time point (Fig. 2A). […] Therefore, we analyzed the subcellular localization of internalized FAM-Aβ42 by confocal microscopy in N2a cells treated as before and analyzed co-localization with lysosomes. For the visualization of acidic organelles, a brief incubation with LysoTracker Red at the end of the experiment was included (Fig. 2B). After 24 h of incubation, a small amount of cell-associated Aβ42 can be detected in N2a-mLRP4 cells.
# Figure 2 Increased accumulation of intracellular Aβ42 within lysosomes in LRP1 minireceptor-expressing cells. A, increased Aβ42 accumulation in LRP1 minireceptor-expressing cells. N2a-mLRP4 and N2a-pcDNA3 cells were treated with 500 nM of FAM-Aβ42 at 37°C for 24, 48 and 72 h, and steady-state levels of intracellular Aβ42 were determined by flow cytometric analyses of pronase-treated cells as described in the Experimental Procedures. […] B, increased co-localization of intracellular Aβ42 and lysosomes in N2a-mLRP4 cells. N2a-pcDNA3 and N2a-mLRP4 cells were grown in glass chamber slides and treated with 500 nM of FAM-Aβ42 at 37°C for 24, 48 and 72 h. Lysosomes were labeled with LysoTracker 30 min before the end of each incubation. Cells were then fixed and analyzed by confocal microscopy.
# For quantification of Aβ uptake experiments, stable N2a cells were plated into 12-well plates at 16,250 cells/cm^2 and grown overnight. Similar to imaging assays, cells were washed twice with PBS and incubated for the indicated periods of time with pre-warmed internalization media containing 500 nM FAM -Aβ42. After incubation, cells were washed twice with PBS and non-enzymatically detached as before in 500 µL cell dissociation solution. Cells were sequentially washed once with 1 mL of cold internalization media and twice with 2 mL cold PFN. Cells were finally resuspended in PFN-1% PFA and analyzed by FACS as before. For MEF-1 and MEF-2 experiments, 5,000 cells/cm^2 were plated in 12-well plates the day before. Cells were then washed twice with PBS and incubated 4 h with pre-warmed internalization media containing 500 nM FAM-Aβ42. After completion of the incubation time, cells were processed by FACS analysis as described above for N2a cells.
# LRP1 knockdown was carried out in GT1-7 cells by siRNA transfection using Lipofectamine 2000 (Invitrogen, Carlslab, CA) and 120 nM of dsRNA duplex (Ambion, Austin, TX). Briefly, cells were plated in 6-well plates the day before transfection and grown overnight. Scrambled and LRP1 siRNA duplexes were generated according to the manufacturer's instruction and complexed with Lipofectamine 2000 as previously described. FAM-Aβ42 experiments were performed 72 h after siRNA transfection and analyzed as previously described for N2a cells. For clathrin heavy chain knockdown, shRNA lentiviruses were produced in the Viral Vectors Core facility at Washington University School of Medicine. In brief, 293T cells were transfected with pLKO.1-derived constructs together with the pHR'8.2ΔR and pCMV-VSV-G packaging systems as previously described. […]
substance,measurement,setting,value
FAM-Aβ42: FAM-Aβ42 peptide (23526) from Anaspec; amyloid-β 42 with carboxyfluorescein at the N-terminal region,levels of FAM-Aβ42 in N2a-mLRP4 cells compared to N2a-pcDNA3 cells,"24 h, FACS of pronase-treated cells",slight increase
same,levels of FAM-Aβ42 in N2a-mLRP4 cells compared to N2a-pcDNA3 cells,"48 h, FACS of pronase-treated cells",twice the levels
same,levels of FAM-Aβ42 in N2a-mLRP4 cells compared to N2a-pcDNA3 cells,"72 h, FACS of pronase-treated cells",twice the levels
same,cell-associated FAM-Aβ42 in N2a-mLRP4 cells compared to N2a-pcDNA3 cells,"500 nM, 48 h, FACS, pronase-treated and untreated cells",increases
same,"FAM-Aβ42 uptake in clathrin knocked down cells compared to control, empty lentivirus","N2a-mLRP4, clathrin heavy chain shRNA lentivirus, 500 nM, 48 h, FACS of pronase-treated cells",twofold decrease
